The values below come from patent US10899795B2, “Modified epitopes for boosting CD4+ T-cell responses” (Katholieke Universiteit Leuven, priority 2012, dated 2021).

The assay concerns hemagglutinin-loaded dendritic cells. It counts as cell-based, C57BL/6 mice.

Regarding CLAI YSTVASSLV LLV [SEQ ID NO:9], the “lysis of hemagglutinin-loaded dendritic cells (51Cr release)” value is recorded as “significant lysis”.
